Each structure is given as a SMILES string.

One may read the melting point as the temperature of the solid-liquid transition.

`CCCOC(C)c1ccc(OCc2ccccc2)cc1` (single isomer, unassigned; (+)) showed a melting point of 51 to 53 °C.
The value for `CN(C)C=Nc1nc(Cl)c2[nH]cnc2n1` was 300 °C; that for `Cc1ccc(S(=O)(=O)N2CCC[C@H](CC(=O)NC(C)C)c3ccccc32)cc1` was 131 to 133 °C; that for `COc1cc(/C=C/c2cc(/C=C/c3ccc4cc[nH]c4c3)n[nH]2)cc(OCc2ccccn2)c1` was 88 to 93 °C.
As for `COC=C(C(=O)OC)N(C)c1ncnc(-c2ccccc2)n1`, the melting point lay in the range of 98 to 101 °C.
The value for `COc1cc(N(C(=O)COCCOCC(N)=O)c2cc(OC)cc3ccc(C)nc23)c2nc(C)ccc2c1` was 191 to 193 °C; that for `COC(=O)C(=NO)c1nc2cc(Cl)ccc2oc1=O` was 176 to 177 °C.
On to `Cc1c(C(=O)Nc2ccc(N3CCC(N4CCOCC4)CC3)c(C(N)=O)c2)cnn1-c1ccc(Cl)cc1`, for which the melting point stood at 270 °C.
The same measure for `O=C(O)c1ccc2cnn(C3CCCC3)c2c1`: 172 to 175 °C.
The same measure for `CCOC(=O)C(=O)C1C(=O)c2cccc3cccc1c23` (centres undefined): 101 to 103 °C; for `Cn1cc(C(=O)NCc2ccc(Cl)cc2)c(=O)c2cc(CN3CCOCC3)sc21`: 230 to 236 °C; for `COc1cc(OCCCN2CCC[C@H]2C)ccc1-c1ccc(=O)[nH]n1`: 182 to 186 °C.
The same measure for `COC(=O)c1ccc(C(=O)NCc2cc(O)cc(O)c2)cc1Cl`: 152 to 155 °C; for `CCCc1nn2ncc(C(=O)O)c2n1Cc1ccc(-c2ccccc2-c2nc(=O)o[nH]2)cc1`: 223 to 225 °C; for `NC1=Nc2ccc(I)cc2C(c2ccccn2)=NC1`: 228 to 229 °C.
The molecule `CS(=O)(=O)c1ccccc1-c1ccc(C(=O)N2Cc3ccc(C(=O)NCc4cccnc4)n3Cc3ccccc32)cc1` came in with a melting point of 153 to 156 °C.
The molecule `O=C(O)COc1ccc2c(c1)Cc1sc(SCCC(c3ccccc3)c3ccccc3)nc1-2` came in with a melting point of 135 to 137 °C.
The value for `Nc1c(O)c2ccccc2oc1=O` was 400 °C; that for `C=C(C)COc1ccc(C(=O)C=Cc2ccccc2)c(O)c1` was 114 to 115 °C.
The value for `CCOC(=O)c1csc(Nc2ccc(F)cc2)n1` was 133 to 136 °C.
The value for `CN(C)C(=NCCN1CCC(C(=O)c2ccc(F)cc2)CC1)NC#N` was 139 to 141 °C; that for `COc1ccccc1C(=O)Nc1cc(C)ccc1C#N` was 147 to 149 °C; that for `Cc1cccc2c1nc(C(C)C)n2Cc1c(F)cccc1F` was 151 to 153 °C.
`C[C@H]1C[C@@]2(N)CN(c3c(F)cc4c(=O)c(C(=O)O)cn5c4c3OC[C@@H]5C)C[C@@H]12`: the melting point was 122 to 124 °C.
Molecule `C=CCOc1ccc(-c2ccc(C(=O)OC)cc2)cc1` came in with a melting point of 149 °C.
As to `CCN1C(=O)C(C)(C)C(=O)N(C)c2cc(CN(CCn3cc(C)c4occc4c3=O)Cc3cc(COC)nn3C)ccc21`, the melting point was in the range of 169 to 170 °C.
Turning to `O=C1OC(CCl)CN1c1ccc(Cl)cc1` (centres undefined), the melting point was in the range of 119 to 120 °C.
The same measure for `COC(=O)c1ccc(-c2coc3ccc(-c4nnc(C)o4)cc23)c(Cl)c1`: 171 to 172 °C; for `CCC(CO)(CO)NC(=O)Nc1ccccc1CCc1cc(C(C)(C)C)c(O)c(C(C)(C)C)c1`: 145 to 146 °C.
The value for `COc1cc(Nc2nccc(NC3CCN(Cc4ccccc4)CC3)n2)cc(OC)c1OC` was 136 °C; that for `O=[N+]([O-])c1c(CBr)cccc1Oc1ccccc1Cl` was 68 to 70 °C; that for `CCCCCCCCCCCCCCOC(=O)c1cc(C(=O)OCCCCCCCCCCCCCC)cc([N+](=O)[O-])c1` was 60 to 61 °C.
The molecule `COc1cccc([C@H]2O[C@H](Cc3nc(=O)o[nH]3)C(=O)N(CC(C)(C)C)c3ccc(Cl)cc32)c1OC` came in with a melting point of 130 to 133 °C.
The same measure for `CCOc1ccc2nc(NC(=O)N(C)C)sc2c1`: 183 to 186 °C.
The value for `Cc1noc(CC(=O)Oc2ccc(Br)cc2)n1` was 73 to 74 °C; that for `N#CCCn1c(C(=O)OCc2ccccc2)cc2ccccc21` was 98 to 100 °C; that for `COc1ccc(-c2cc(C(C)(O)C(F)(F)F)[nH]c2-c2ccc(OC)cc2)cc1` (centres undefined) was 111 to 112 °C.
The value for `Cc1ccnc(-n2cc(C#N)ccc2=O)c1` was 166 to 168 °C; that for `COC1=CC23CCN(C=O)C(Cc4cccc(OC)c42)C3CC1` (centres undefined) was 169 to 172 °C.
Take `CCCCCCCN(CC)CCC(O)c1ccc(NS(C)(=O)=O)cc1` (centres undefined): the melting point fell in the range of 74 to 75 °C.
The value for `CC(=O)NNc1ccnc2c(NC(=O)c3c(Cl)cccc3Cl)cc(C)cc12` was 263 to 266 °C.
The value for `COC(=O)COc1ccc(C(=O)OCc2ccccc2)cc1` was 63 to 66 °C; that for `Nc1ccn(-c2ccc(Br)cc2)n1` was 122 to 123 °C.
In turn, `O=C1OC[C@@H](CF)N1c1nc(-c2ccc(Br)cc2)cs1` registered a melting point of 148 to 150 °C.
The same measure for `Clc1nc(Cl)nc(Nc2ccc(OCc3ccccc3)c(Cl)c2)n1`: 145 °C; for `CCCCCCCCOc1ccc2cc(C(=O)O)ccc2c1`: 150 to 153 °C.
The same measure for `CCNC(=S)Nc1ccccc1N1CCOCC1`: 118 to 120 °C.
Consider `O=C1c2ncccc2C(=O)c2c(-c3ccccc3NC(=O)C(F)(F)F)ccnc21`, for which the melting point was 205 °C.
The value for `CCN(CC)S(=O)(=O)c1ccc(N2N=C(C)C(=CNc3ccccc3OC)C2=O)cc1` was 191 °C; that for `CCc1cccc(C)c1N1C(=O)CCN(CC)C1=S` was 74 to 77 °C; that for `COC(=O)C=Cc1ccc(OC)c(OC)c1` was 72 to 74 °C.
The same measure for `C=CCN1CC(C)N(C(c2cccnc2)c2cccc(O)c2)CC1C` (centres undefined): 115 to 118 °C; for `CCn1cc(C(=O)NCc2ccc(Cl)cc2)c(=O)c2cc(CN(C)C[C@@H](O)c3ccccc3)sc21`: 100 to 102 °C.
Molecule `CCOc1c(C=O)cc2c3c(cccc13)-c1ccccc1-2` came in with a melting point of 118 to 119 °C.
The same measure for `CC(C)NC(=O)c1coc(CN2C(=O)C3(COc4cc5c(cc43)OCO5)c3ccccc32)n1` (centres undefined): 182 to 183 °C.
The value for `Cc1nnc2nc(-c3ccccc3)c3cc(Cl)ccc3n12` was 335 to 337 °C; that for `Cc1ccc(N2C(=O)C(O)=C(C(=O)c3ccc(C(C)C)cc3)C2c2ccc(Cn3cccn3)cc2)nn1` (centres undefined) was 263 °C.
The value for `O=[N+]([O-])c1ccc(C(O)c2ccccn2)c(OCC(F)(F)F)c1` (centres undefined) was 119 to 123 °C; that for `O=S1(=O)c2ccccc2-c2ccccc2N1CCCN1CCN(c2ccc(F)cc2)CC1` was 163 °C; that for `CCOCc1nc2c(N)nc(C)c(C)c2n1CCCCS(=O)(=O)NC` was 194 to 196 °C.
`CCCc1nn(-c2ccc(C(F)(F)F)cn2)cc1CCCCOc1cccc(CC(=O)O)c1` registered a melting point of 96 to 97 °C.
The value for `O=C1CCC2(CCC(=O)c3cc([N+](=O)[O-])ccc32)C(=O)N1` (centres undefined) was 273 to 275 °C; that for `CCCCC(=O)Nc1ccccc1C(N)=O` was 119 to 120 °C; that for `COc1cccc(CC[C@H]2CNCCN2)c1` was 53 to 57 °C.
The value for `CC12CCC3c4ccc(O)cc4C(=O)C(Sc4ccc(O)cc4)C3C1CCC2O` (centres undefined) was 120 to 124 °C.
The value for `Cc1ccc2cccc(N3CCNCC3)c2n1` was 163 to 164 °C.
`O=C1COC(CCCOC(=O)c2ccccc2)(c2ccc(Cl)c(Cl)c2)CN1` (centres undefined) returned a melting point of 92 °C.
The same measure for `CN(C)c1ccc2c(c1)Sc1cc(N(C)C)ccc1N2C(=O)c1cc(C(C)(C)C)c(O)c(C(C)(C)C)c1`: 212 to 216 °C; for `CCC1=CC(c2cccc([N+](=O)[O-])c2)C2=C(CCCC2=O)N1` (centres undefined): 182 to 184 °C.
The same measure for `Nc1nc(O)c2c(n1)NCC(CCC1CCC(N[C@@H](CCC(=O)O)C(=O)O)CC1)C2` (some centres undefined): 210 to 225 °C; for `Cc1ccc(NC(=O)NCc2cccc3c2C(=O)N(C2CCC(=O)NC2=O)C3=O)cc1Cl` (centres undefined): 238 to 240 °C; for `O=C(O)c1cn(C2CC2)c2c(Cl)c(N3CCC(CNCCF)C3)c(F)cc2c1=O` (centres undefined): 138 to 142 °C.
In turn, `Nc1nc(-c2ccc(Cl)cc2)c(CCC(=O)N2CCS(=O)(=O)CC2)s1` had a melting point of 220 to 222 °C.
The value for `Nc1nc(Nc2ccc(S(N)(=O)=O)cc2)sc1C(=O)c1c(F)cccc1F` was 258 to 260 °C; that for `Cc1oc2c(Br)cccc2c1C` was 33 °C.
`CCOC(=O)COc1ccc2c(-c3ccc(Cl)cc3)noc2c1` had a melting point of 97 °C.
The value for `ON=Cc1ccncc1` was 180 to 182 °C; that for `OCC1OC(n2c(Cl)c(-c3ccsc3)c3cc(Cl)c(Cl)cc32)C(O)C1O` (centres undefined) was 152 to 153 °C.
With `CCCOc1c([N+](=O)[O-])cccc1[N+](=O)[O-]`, the melting point lay in the range of 119 to 120 °C.
The value for `CCC1(C(=O)C(C(O)C(Cl)(Cl)Cl)n2cncn2)CCCC1` (centres undefined) was 194 to 196 °C; that for `O=C(c1cc(C(F)(F)F)cc(C(F)(F)F)c1)N1CCC2(CC1)C(=O)NCN2c1ccc(Cl)c(Cl)c1` was 220 to 222 °C.
The same measure for `COc1ccc(-c2cn(-c3cc4c(=O)n(NS(C)(=O)=O)c(=O)[nH]c4cc3C(F)(F)F)cn2)cc1`: 293 to 294 °C; for `CCNc1nc(N)c(SC)c(Cl)n1`: 124 °C; for `O=C(c1ccccc1)c1cc2ccncc2[nH]1`: 245 to 247 °C.
For `COC(=O)c1ccccc1S(=O)(=O)NC(=O)Nc1nc(Cl)c(C)c(OC)n1`, the melting point fell in the range of 204 to 205 °C.
The value for `CNN(NC)C(=O)Sc1cc(C)ccc1C(=O)OC` was 79.4 to 80 °C; that for `Cc1c(O)ccnc1CSc1nc2ccc(F)cc2[nH]1` was 232 to 233 °C.
The value for `CCOC(=O)Nc1nc(CC(=O)OC)ns1` was 110 to 112 °C; that for `CN=C1SCC(O)(c2ccc(Cl)c(S(=O)(=O)NCc3cccnc3)c2)N1C` (centres undefined) was 152 to 153 °C.

For the origin of these results see a melting point compilation (Tetko et al.; mined from patent text by program, amines drawn as free bases though some values may be those of a salt).
